Experimental findings from patent US20240109853A1 (Shanghai Yao Yuan Biotechnology Co., Ltd., priority 2020, published 2024) are described below.

A word on the IC50: it is the midpoint of a concentration-inhibition curve.

Test [1] concerns ALPK1-dependent NFκB reporter gene activation in HEK293 cells stably expressing an NF-kB reporter (G9 cells). In words: NFκB gene reporter alkaline phosphatase assay. To be noted: read-out: NFkB assay IC50. In kind it is cell-based. The essentials:
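Compounds, serially diluted, were added to attached HEK293-derived G9 reporter cells for 30 min prior to stimulation with the fluoro-heptose ADP agonist. Secreted alkaline phosphatase was quantified colorimetrically using pNPP.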

The next test has as its target ALPK1 (Homo sapiens (Human), UniProt Q96QP1). In words: ALPK1 in vitro kinase assay (HTRF of TIFA phosphorylation). It counts as biochemical. (In general: TR-FRET usually uses a lanthanide donor and a delayed reading to cut background.)

Each structure is given as a SMILES string. Where two headings read alike, the source gives them in different places.

Sequence of ALPK1 (Q96QP1 whole entry): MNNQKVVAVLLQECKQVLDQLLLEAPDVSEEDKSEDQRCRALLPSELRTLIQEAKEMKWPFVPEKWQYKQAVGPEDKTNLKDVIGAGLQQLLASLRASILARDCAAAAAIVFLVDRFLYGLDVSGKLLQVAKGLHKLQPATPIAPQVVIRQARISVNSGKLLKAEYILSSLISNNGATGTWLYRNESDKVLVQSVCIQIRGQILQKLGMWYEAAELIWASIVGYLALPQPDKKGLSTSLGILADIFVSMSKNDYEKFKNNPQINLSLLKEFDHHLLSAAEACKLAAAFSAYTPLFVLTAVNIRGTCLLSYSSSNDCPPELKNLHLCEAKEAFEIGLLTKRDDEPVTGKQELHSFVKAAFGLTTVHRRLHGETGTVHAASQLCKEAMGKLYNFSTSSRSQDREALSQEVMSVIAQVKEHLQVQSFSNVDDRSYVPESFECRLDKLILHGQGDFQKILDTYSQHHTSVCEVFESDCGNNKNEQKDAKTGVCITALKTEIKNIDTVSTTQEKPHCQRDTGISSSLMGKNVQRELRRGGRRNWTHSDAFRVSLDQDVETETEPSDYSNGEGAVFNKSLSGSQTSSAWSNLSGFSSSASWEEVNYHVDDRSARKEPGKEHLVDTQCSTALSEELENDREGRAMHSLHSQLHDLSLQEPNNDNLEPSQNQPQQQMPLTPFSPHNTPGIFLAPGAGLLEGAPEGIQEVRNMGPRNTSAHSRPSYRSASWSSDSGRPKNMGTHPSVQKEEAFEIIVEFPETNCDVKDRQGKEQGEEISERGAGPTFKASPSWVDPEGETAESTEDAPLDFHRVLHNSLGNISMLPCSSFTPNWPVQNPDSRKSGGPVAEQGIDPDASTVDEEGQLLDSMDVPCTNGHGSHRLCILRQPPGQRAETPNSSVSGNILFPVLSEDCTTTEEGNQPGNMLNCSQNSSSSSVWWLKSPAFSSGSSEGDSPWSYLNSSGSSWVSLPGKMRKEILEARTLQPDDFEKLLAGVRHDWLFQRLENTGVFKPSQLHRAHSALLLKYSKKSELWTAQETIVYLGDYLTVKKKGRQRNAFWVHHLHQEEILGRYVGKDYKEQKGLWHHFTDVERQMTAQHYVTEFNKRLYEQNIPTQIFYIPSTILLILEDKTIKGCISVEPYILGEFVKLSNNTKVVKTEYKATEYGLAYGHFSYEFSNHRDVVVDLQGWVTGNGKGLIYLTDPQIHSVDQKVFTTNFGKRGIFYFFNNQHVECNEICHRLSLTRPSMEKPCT

As to `CC(C)(c1ccc(Br)cc1)c1csc(NC(=O)NCc2cnc(N3CCC(N)CC3)nc2)n1` [Example A099, 1-((2-(4-aminopiperidin-1-yl)pyrimidin-5-yl)methyl)-3-(4-(2-(4-bromophenyl)propan-2-yl)thiazol-2-yl)urea], the IC50 in test [1] (Homo sapiens, HEK293) was found to be 0.45 µM; against ALPK1, 0.013 µM.
Take `CCCN1CCC(NC(=O)c2ccc(CNC(=O)Nc3nc(C(C)(C)c4ccc(OC)cc4)cs3)cn2)CC1` [Example A115, 5-((3-(4-(2-(4-methoxyphenyl)propan-2-yl)thiazol-2-yl)ureido)methyl)-N-(1-propylpiperidin-4-yl)picolinamide]: the IC50 in test [1] (Homo sapiens, HEK293) came to 0.83 µM; at ALPK1, 0.019 µM.
Turning to `COc1ncc(CNC(=O)Nc2nc(C(C)(C)c3ccc(Br)cc3)cs2)cn1` [Example A080, 1-(4-(2-(4-bromophenyl)propan-2-yl)thiazol-2-yl)-3-((2-methoxypyrimidin-5-yl)methyl)urea], the IC50 is 13.3 µM in test [1] (Homo sapiens, HEK293) and 0.172 µM on ALPK1.
As to `CC(C)(c1ccc(Br)cc1)c1csc(NC(=O)NCc2ccc(F)c(Cl)c2)n1` [Example A017, 1-(4-(2-(4-bromophenyl)propan-2-yl)thiazol-2-yl)-3-(3-chloro-4-fluorobenzyl)urea], the IC50 in test [1] (Homo sapiens, HEK293) worked out at 0.97 µM; on ALPK1, 0.204 µM.
Take `[2H]C([2H])(O)CNC(=O)Nc1nc([C@@](C)(C#C)c2ccc(Cl)cc2)cs1` (stereo in doubt) [Example A321, 1-[4-[1-(4-chlorophenyl)-1-methyl-prop-2-ynyl]thiazol-2-yl]-3-(2,2-dideuterio-2-hydroxy-ethyl)urea]: the 50% inhibitory concentration (IC50) in test [1] (Homo sapiens, HEK293) is 0.3 µM; against ALPK1, 0.028 µM.
In the case of `CC(C)(c1ccc(Br)cc1)c1csc(NC(=O)NCc2ccc(N3CCNCC3)cc2)n1` [Example A027, 1-(4-(2-(4-bromophenyl)propan--2 yl)thiazol-2-yl)-3-(4-(piperazin-1-yl)benzyl)urea], the IC50 in test [1] (Homo sapiens, HEK293) was 1.45 µM; against ALPK1, 0.046 µM; against ALPK1 (ALPK1 2 nM, TIFA substrate, ADP-Heptose activator, HTRF readout), ~0.05 µM.
With `COc1ccc(C(C)(C)c2csc(NC(=O)NCCCN3CCNC(C)C3)n2)cc1` (centres unmarked) [Example A228, 1-(4-(2-(4-methoxyphenyl)propan-2-yl)thiazol-2-yl)-3-(3-(3-methylpiperazin-1-yl)propyl)urea], the IC50 in test [1] (Homo sapiens, HEK293) was 3.86 µM; against ALPK1 it was 0.1 µM.
For `CCOc1ccc(C(C)(C)c2csc(NC(=O)NCc3cnc(N4CCNCC4)nc3)n2)cc1` [Example A087, 1-(4-(2-(4-ethoxyphenyl)propan-2-yl)thiazol-2-yl)-3-((2-(piperazin-1-yl)pyrimidin-5-yl)methyl)urea], the IC50 in test [1] (Homo sapiens, HEK293) stood at 1.74 µM; on ALPK1 it was 0.089 µM.
For the compound `C#CC(C)(c1ccc(Cl)cc1)c1csc(NC(=O)NC2CCN(Cc3ccc(C)cc3)C2)n1` (centres unmarked) [Example A309, 1-(4-(2-(4-chlorophenyl)but-3-yn-2-yl)thiazol-2-yl)-3-(1-(4-methylbenzyl)pyrrolidin-3-yl)urea], the IC50 in test [1] (Homo sapiens, HEK293) was 4.12 µM; against ALPK1, 1.41 µM.
`CC(C)(c1ccc(Br)cc1)c1csc(NC(=O)NCc2ccc(N3CCC(O)C3)cc2)n1` (centres unmarked) [Example A009, 1-(4-(2-(4-bromophenyl)propan-2-yl)thiazol-2-yl)-3-(4-(3-hydroxypyrrolidin-1-yl)benzyl)urea]: the 50% inhibitory concentration (IC50) in test [1] (Homo sapiens, HEK293) came to 3.15 µM; at ALPK1, 0.154 µM.
With `CC(C)(c1ccc(Br)cc1)c1csc(NC(=O)NCc2cnc(NCCO)nc2)n1` [Example A119, 1-(4-(2-(4-bromophenyl)propan-2-yl)thiazol-2-yl)-3-((2-((2-hydroxyethyl)amino)pyri-midin-5-yl)methyl)urea], the IC50 in test [1] (Homo sapiens, HEK293) was found to be 4.43 µM; against ALPK1 it was 0.036 µM.
Regarding `CC(C)(c1ccc(Br)cc1)c1csc(NC(=O)NCc2cccc(N3CCNCC3)n2)n1` [Example A182, 1-(4-(2-(4-bromophenyl)propan-2-yl)thiazol-2-yl)-3-((6-(piperazin-1-yl)pyridin-2-yl)methyl)urea], the IC50 worked out at 4.3 µM in test [1] (Homo sapiens, HEK293) and 0.163 µM on ALPK1.
On to `COc1ccc(C(C)(C)c2csc(NC(=O)NCc3cnc(N4CCC(O)C4)nc3)n2)cc1` (centres unmarked) [Example A083, 1-((2-(3-hydroxypyrrolidin-1-yl)pyrimidin-5-yl)methyl)-3-(4-(2-(4-methoxyphenyl)propan-2-yl)thiazol-2-yl)urea], for which the IC50 was found to be 0.68 µM in test [1] (Homo sapiens, HEK293) and 0.111 µM on ALPK1.
For `COc1ccc(C(C)(C)c2csc(NC(=O)NCc3ccc(N4CCNCC4)c(OC(C)C)c3)n2)cc1` [Example A225, 1-(3-isopropoxy-4-(piperazin-1-yl)benzyl)-3-(4-(2-(4-methoxyphenyl)propan-2-yl)thiazol-2-yl)urea], the IC50 in test [1] (Homo sapiens, HEK293) was determined as 1.05 µM; at ALPK1 it was 0.108 µM.
Regarding `Cc1ccc(C(C)(C)c2csc(NC(=O)NCc3ccc(N4CCNCC4)cc3)n2)cc1` [Example A075, 1-(4-(piperazin-1-yl)benzyl)-3-(4-(2-(p-tolyl)propan-2-yl)thiazol-2-yl)urea], the IC50 in test [1] (Homo sapiens, HEK293) stood at 0.267 µM; against ALPK1 it was 0.025 µM.
On to `COc1ccc(C(C)(C)c2csc(NC(=O)NCc3ccc(N4CCNCC4)c(C(N)=O)c3)n2)cc1` [Example A060, 5-((3-(4-(2-(4-methoxyphenyl)propan-2-yl)thiazol-2-yl)ureido)methyl)-2-(piperazin-1-yl)benzamide], for which the IC50 in test [1] (Homo sapiens, HEK293) came to 4.8 µM; on ALPK1, 0.008 µM.
On the same counts, the results for `C#C[C@](C)(c1ccc(Br)cc1)c1csc(NC(=O)NCC(C)(C)O)n1` (stereo in doubt) [Example A305, 1-[4-[1-(4-bromophenyl)-1-methyl-prop-2-ynyl]thiazol-2-yl]-3-(2-hydroxy-2-methyl-propyl)urea] are 2.69 µM and 0.167 µM.
Take `COc1ccc(C(C)(C)c2csc(NC(=O)NCCCS(N)(=O)=O)n2)cc1` [Example A138, 3-(3-(4-(2-(4-methoxyphenyl)propan-2-yl)thiazol-2-yl)ureido)propane-1-sulfonamide]: the IC50 was found to be 2.38 µM in test [1] (Homo sapiens, HEK293) and 0.097 µM against ALPK1.
On to `CNS(=O)(=O)[C@H]1C[C@H](CNC(=O)Nc2nc(C(C)(C)c3ccc(OC)cc3)cs2)C1` [Example A150, rac-(1r,3r)-3-((3-(4-(2-(4-methoxyphenyl)propan-2-yl)thiazol-2-yl)ureido)methyl)-N-methylcyclobutane-1-sulfonamide], for which the IC50 came to 1.41 µM in test [1] (Homo sapiens, HEK293) and 0.025 µM at ALPK1.
As for `O=C(NCc1cc(F)c(N2CCNCC2)c(F)c1)Nc1nc(C2(c3ccc(Br)cc3)CCCC2)cs1` [Example A192, 1-(4-(1-(4-bromophenyl)cyclopent-yl)thiazol-2-yl)-3-(3,5-difluoro-4-(piperazin-1-yl)benzyl)urea], the IC50 in test [1] (Homo sapiens, HEK293) came out at 4.34 µM; against ALPK1, 0.106 µM.
In the case of `COc1ccc(C(C)(C)c2csc(NC(=O)NCc3ccc(C(=O)NC4CCN(C)CC4)nc3)n2)cc1` [Example A015, 5-((3-(4-(2-(4-methoxyphenyl)propan-2-yl)thiazol-2-yl)ureido)methyl)-N-(1-methylpiperidin-4-yl)picolinamide], the IC50 in test [1] was 0.88 µM; against ALPK1, 0.024 µM.
As to `CC(C)(c1ccc(Br)cc1)c1csc(NC(=O)NCc2cnc(N3CCN(CCO)CC3)nc2)n1` [Example A103, 1-(4-(2-(4-bromophenyl)propan-2-yl)thiazol-2-yl)-3-((2-(4-(2-hydroxyethyl)piperazin-1-yl)pyrimidin-5-yl)methyl)urea], the IC50 in test [1] (Homo sapiens, HEK293) turned out to be 6.2 µM; on ALPK1, 0.097 µM.
Consider `CC(C)(c1ccc(Br)cc1)c1csc(NC(=O)NCc2ccc(CN3CCNCC3)c(F)c2)n1` [Example A214, 1-(4-(2-(4-bromophenyl)propan-2-yl)thiazol-2-yl)-3-(3-fluoro-4-(piperazin-1-ylmethyl)benzyl)urea], for which the IC50 is 1.56 µM in test [1] (Homo sapiens, HEK293) and 0.04 µM on ALPK1.
On the same counts, the results for `COc1ccc(C(C)(C)c2csc(NC(=O)NCc3ccc(N4CCNCC4)cc3)n2)cc1` [Example A053, 1-(4-(2-(4-methoxyphenyl)propan-2-yl)thiazol-2-yl)-3-(4-(piperazin-1-yl)benzyl)urea] are 0.76 µM and 0.043 µM.
For `COc1ccc(C(C)(C)c2csc(NC(=O)NCc3cnc(N4CCNCC4)c(F)c3)n2)cc1` [Example A036, 1-((5-fluoro-6-(piperazin-1-yl)pyridin-3-yl)methyl)-3-(4-(2-(4-methoxyphenyl)propan-2-yl)thiazol-2-yl)urea], the IC50 in test [1] (Homo sapiens, HEK293) amounted to 0.62 µM; at ALPK1, 0.024 µM.
As to `COc1ccc(C(C)(C)c2csc(NC(=O)NCc3ccc(N4CC5CC4CN5)c(C(N)=O)c3)n2)cc1` (centres unmarked) [Example A064, 2-(2,5-diazabicyclo[2.2.1]heptan-2-yl)-5-((3-(4-(2-(4-methoxyphenyl)propan-2-yl)thiazol-2-yl)ureido)methyl)benza-mide], the IC50 in test [1] (Homo sapiens, HEK293) worked out at 19.7 µM; against ALPK1 it was 0.041 µM.
On the same counts, the results for `COc1ccc(C(C)(C)c2csc(NC(=O)NCCS(N)(=O)=O)n2)cc1` [Example A137, 2-(3-(4-(2-(4-methoxyphenyl)propan-2-yl)thiazol-2-yl)ureido)ethanesulfona-mide] are 1.96 µM and 0.042 µM.
As for `C#C[C@](C)(c1ccc(Cl)cc1)c1csc(NC(=O)NC(CO)CO)n1` (stereo in doubt) [Example A297, 1-(4-(2-(4-chlorophenyl)but-3-yn-2-yl)thiazol-2-yl)-3-(1,3-dihydroxypropan-2-yl)urea], the IC50 is 4.39 µM in test [1] (Homo sapiens, HEK293) and 0.935 µM at ALPK1.
`COc1ccc(C(C)(C)c2csc(NC(=O)NCc3cnc(N4CCC(N)C4)nc3)n2)cc1` (centres unmarked) [Example A187, 1-((2-(3-aminopyrrolidin-1-yl)pyrimidin-5-yl)methyl)-3-(4-(2-(4-methoxyphenyl)propan-2-yl)thiazol-2-yl)urea]: the IC50 in test [1] (Homo sapiens, HEK293) turned out to be 0.7 µM; on ALPK1, 0.007 µM.
